Assay results taken from PMC12650265 (The Journal of Experimental Medicine, 2025).
Entries after “also recorded” stand apart in the source; their conditions may differ.

Columns and labels:
SKW-3-DGB129 line = assay: SKW-3 reporter T cell activation (CD69), coculture with C1R.MR1; assay type: cell-based; conditions: SKW-3-DGB129 cocultured with C1R.MR1
Protocol: (§1) Given the intracellular MR1 retention induced by the RF catabolites, we anticipated that these ligands could influence the activity of MR1-reactive T cells. First, we utilized a system whereby reporter SKW-3 T cell lines were cocultured with C1R.MR1 APCs and activation was determined by CD69 expression. […] In contrast, SKW-3-MBV28 cells were inhibited by alloxazine but activated by lumichrome (Fig. S3, D–F). Two MR1-restricted TRAV1-2^−ve SKW-3 T cell lines were also tested.
(§2) C1R.MR1 cells (1 × 10^5) were initially stained with CTV (Thermo Fisher Scientific) for 15 min and then incubated with RF catabolites for 20 h. […] Cells were subsequently stained with PE-Cy7-conjugated anti-CD69 (1:100; BD Biosciences) and PE-labeled anti-MR1 (1:100, clone 26.5; BD Biosciences), before analysis on a LSRFortessa (BD Biosciences) flow cytometer. Activation of the SKW-3 cells was reflected by the cell surface CD69 expression.

SKW-3-MAV36 line = assay: as above; assay type: cell-based; conditions: SKW-3-MAV36, in the presence of 5-OP-RU
Protocol: as §1, §2

[1] = tested on: SKW-3 cells expressing MAIT TCR MBV28; assay: as above; assay type: cell-based; conditions: SKW-3-MBV28, in the presence of 5-OP-RU
Protocol: as §1, §2

[2] = tested on: SKW-3 cells expressing MAIT TCR AF-7; assay: as above; assay type: cell-based
Protocol: as §1, §2

MAIT cells from PBMCs = assay: primary MAIT cell activation in PBMCs (CD69, TNF); assay type: cell-based, human; conditions: 18 h, in the presence of 5-OP-RU or 5-A-RU
MR1^R9H = tested on: T1, MR1^R9H; assay: refolding of MR1^R9H with ligand in solution; assay type: binding, human
T1 construct: plasmids encoding for the extracellular domains of MR1, β2m, and the AF-7 TCRα and TCRβ chains; made in house
From the text: (§3) We then tested the effect of the RF catabolites on the expression of two mutant versions of MR1 termed MR1^R9H ([Howson et al., 2020]) and MR1^K43A ([Reantragoon et al., 2013]). First, we tested the MR1^R9H mutant ([Howson et al., 2020]), which represents a rare, natural human polymorph. […] We used C1R.MR1^R9H cells, which are produced by stable transduction of wild-type C1R cells, which express low levels of wild-type MR1, with a vector expressing the MR1^R9H mutant ([Howson et al., 2020]). […] When C1R. […] Next, we sought to understand how the previously characterized K43A mutation affects ligand binding.
Escherichia coli BL21(DE3) cells were transformed with plasmids encoding for the extracellular domains of MR1, β2m, and the AF-7 TCRα and TCRβ chains ([Kjer-Nielsen et al., 2012]; [Patel et al., 2013]; [Wang et al., 2022a]). The proteins were then expressed, and the inclusion bodies were purified, cleaned, and used for refolding. For both MR1 and AF-7 TCR, inclusion bodies were refolded through rapid dilution overnight as previously mentioned ([Keller et al., 2017]). To refold MR1 with ligands, 58 mg MR1 inclusion bodies along with 30 mg of β2m inclusion bodies were placed in 500 ml of refold buffer consisting of 0.1 M Tris, pH 8.0, 5 M of urea, 2 mM EDTA, 2.5 mM oxidized glutathione, 20 mM reduced glutathione, and 0.4 M of L-arginine for 16 h at 4°C. […]

hMR1 protein = target: T2, hMR1 protein (Homo sapiens, UniProt Q95460); assay: fluorescence polarization–based cell-free assay, competition with JYM20 for MR1 binding; conditions: 50% inhibition of 10 nM JYM20 binding to 100 nM empty hMR1, 37°C; three independent experiments in triplicate
T2 construct: plasmids encoding for the extracellular domains of MR1, β2m, and the AF-7 TCRα and TCRβ chains; made in house; host or cells: Escherichia coli BL21(DE3)

[3] = tested on: MAIT and TRAV1-2^−ve cells from PBMCs; assay: TCR-independent or bead stimulation of PBMCs (PMA and ionomycin, αCD3/αCD28 beads); assay type: cell-based, human; conditions: PBMCs preincubated, then αCD3- and αCD28-coated beads
[4] = tested on: T3, human MR1–β2-microglobulin (β2m) complex; assay: refolding of recombinant MR1-β2m with ligand; assay type: binding; conditions: ligand added to refolding buffer; gel filtration and SDS-PAGE
T3 construct: plasmids encoding for the extracellular domains of MR1, β2m, and the AF-7 TCRα and TCRβ chains; made in house

[5] = tested on: T4, MR1^K43A on C1R.MR1^K43A cells; assay: cell surface MR1^K43A by flow cytometry; assay type: cell-based, human
T4 construct: expressed in transfected cells; host or cells: C1R cells overexpressing MR1^K43A
From the text: as §3
The level of MR1 expressed on the cell surface was measured after the exposure to the investigated ligands as previously described ([Awad et al., 2020a]; [Wang et al., 2022a]). C1R Ag-presenting B lymphocytes overexpressing MR1*01 (C1R.MR1), MR1^K43A mutant (C1R.MR1^K43A), MR1^R9H mutant (C1R.MR1^R9H), or HLA-A*02:01 (C1R-A2), in addition to the monocytic THP-1-MR1 cells, were used in this study. 2 × 10^5 cells were incubated with RF catabolites for 3 or 16 h at 37°C and 5% CO2 in 200 μl folate-free RPMI 1640 medium from Gibco (Cat. No. 11875-093) fortified with 10% fetal bovine serum, sodium pyruvate (1 mmol/L), HEPES buffer (15 mmol/L), pH 7.2–7.5, 2% penicillin (100 U/ml), streptomycin ([…]), GlutaMAX (2 mmol/L), nonessential amino acids (0.1 mmol/L) (all from Thermo Fisher Scientific, Life Technologies), and 2-mercaptoethanol ([…], Sigma-Aldrich) (RF-10). After incubation, the cells were first stained with Zombie Aqua Fixable Viability Kit from BioLegend (Cat. No. 423102) and then incubated with biotinylated 8F2F9 αMR1 antibody for 30 min on ice. The unbound antibody was then washed off with 2% fetal bovine serum/PBS (called 2% FACS hereafter) buffer. The cells were finally incubated with PE-conjugated streptavidin (30 μg/ml; BioLegend) and then washed with 2% FACS buffer. The PE fluorescence intensity reflects the surface MR1 level. The data were acquired with LSRFortessa X-20 (BD Biosciences) and Diva software (BD Biosciences) and analyzed using FlowJo software (BD Biosciences).

[6] = tested on: T5, surface MR1*01 on C1R.MR1 cells; assay: quantification of cell surface MR1 by flow cytometry, C1R.MR1 cells; assay type: cell-based, human
T5 construct: expressed in transfected cells; host or cells: C1R B lymphoblastoid cells transduced with MR1*01

soluble WT MR1 = assay: fluorescence-based thermal shift (thermostability) assay of MR1–ligand complexes; assay type: binding, human; conditions: MR1 refolded with the ligand; SYPRO Orange, 28 to 95°C; three independent experiments; listed as MR1-Lumichrome
[7] = tested on: T6, folded MR1 in C1R.MR1 cells; assay: intracellular total folded MR1 by flow cytometry (8F2.F9); assay type: cell-based, human; conditions: 16 h, 100 µM
T6 construct: expressed in transfected cells; host or cells: C1R B lymphoblastoid cells transduced with MR1*01

[8] = tested on: CD3^+ MR1-5-OP-RU tetramer^+ MAIT cells; assay: MAIT cell proliferation in CTV-labeled PBMCs; assay type: cell-based, human; conditions: 7-day culture, 5-OP-RU 10 µM, others 100 µM
Vγ9Vδ2 T cells = assay: Vγ9Vδ2 T cell activation by zoledronate in PBMCs; assay type: cell-based, human; conditions: PBMCs titrated with ligand in the presence of zoledronate
[9] = tested on: T7, MR1 on PBMC-derived B lymphocytes; assay: MR1 surface expression on primary B cells; assay type: cell-based; conditions: primary human B cells, 16 h, highest doses, with or without 5-OP-RU
T7 construct: we also measured MR1 on the surface of cells expressing wild-type levels of MR1; endogenous in cells; host or cells: PBMC-derived B lymphocytes from healthy human donors

IC50 (hMR1 protein): 12.5 µM
Structure (SMILES): Cc1cc2nc3[nH]c(=O)[nH]c(=O)c3nc2cc1C [Lumichrome, 7,8-dimethylalloxazine]
reactivity of MR1 autoreactive, nucleobase-adduct reactive line (CD69) (SKW-3-DGB129 line): inhibited | reactivity to 5-OP-RU (CD69) (SKW-3-MAV36 line): inhibited | reactivity to 5-OP-RU (CD69) [1]: activated | reactivity to 5-OP-RU (CD69) ([2]; SKW-3-AF-7, in the presence of 1 nM 5-OP-RU): enhanced activation | reactivity to RL-7-Me (CD69) ([2]; SKW-3-AF-7, in the presence of 100 nM RL-7-Me): inhibited in a dose-dependent manner | MAIT cell inhibition (CD69 MFI, % CD69^+, TNF production) (MAIT cells from PBMCs): most potent competitor showing the strongest MAIT cell inhibition | refolding with MR1^R9H (MR1^R9H): did not refold with MR1^R9H in solution; also recorded: unable to refold | CD69 upregulation by MAIT or TRAV1-2^−ve cells [3]: not reduced | folding of the MR1-β2m cocomplex in solution [4]: facilitated the correct folding of the MR1-β2m cocomplex | MR1^K43A at the cell surface ([5]; 3 h): increased MR1^K43A at the cell surface | MR1^K43A at the cell surface ([5]; 16 h): MR1 upregulation continues | MR1 cell surface expression ([6]; C1R.MR1 cells, 3 h, 1–200 µM, 8F2F9 antibody): reduced MR1 cell surface | rank as downregulator of MR1 cell surface expression ([6]; overall: lumichrome, then alloxazine, lumiflavin, FMF): most potent downregulator | Tm50 (half-maximum melting temperature), Mean ± SD (soluble WT MR1): 49.89 ± 0.33 °C | total level of folded MR1 (intracellular staining with 8F2.F9) [7]: increased the total level of folded MR1 | MAIT cell proliferation [8]: significantly reduced MAIT cell proliferation | Vγ9Vδ2 T cell activation induced by zoledronate (% CD69^+ Vδ2^+) (Vγ9Vδ2 T cells): did not interfere | MR1 surface expression [9]: reduced MR1 surface expression
